Measured values as given in publication PMC7830771 (Molecular cancer therapeutics, 2017).

What was measured:
[1] = biological target: ABCB1 (P-glycoprotein, MDR1) (Homo sapiens, UniProt P08183); experiment: vanadate-sensitive ATPase assay, crude membranes of High Five cells; format: biochemical
ABCC10 (MRP7) = biological target: T1, ABCC10 (MRP7) (Homo sapiens, UniProt Q5T3U5); experiment: [3H]-paclitaxel efflux, HEK293/ABCC10 versus HEK293/pcDNA3.[…] cells; format: cell-based; details: labelled compound; 0.1 μmol/L; 37°C
T1 sequence (Q5T3U5 1-1492): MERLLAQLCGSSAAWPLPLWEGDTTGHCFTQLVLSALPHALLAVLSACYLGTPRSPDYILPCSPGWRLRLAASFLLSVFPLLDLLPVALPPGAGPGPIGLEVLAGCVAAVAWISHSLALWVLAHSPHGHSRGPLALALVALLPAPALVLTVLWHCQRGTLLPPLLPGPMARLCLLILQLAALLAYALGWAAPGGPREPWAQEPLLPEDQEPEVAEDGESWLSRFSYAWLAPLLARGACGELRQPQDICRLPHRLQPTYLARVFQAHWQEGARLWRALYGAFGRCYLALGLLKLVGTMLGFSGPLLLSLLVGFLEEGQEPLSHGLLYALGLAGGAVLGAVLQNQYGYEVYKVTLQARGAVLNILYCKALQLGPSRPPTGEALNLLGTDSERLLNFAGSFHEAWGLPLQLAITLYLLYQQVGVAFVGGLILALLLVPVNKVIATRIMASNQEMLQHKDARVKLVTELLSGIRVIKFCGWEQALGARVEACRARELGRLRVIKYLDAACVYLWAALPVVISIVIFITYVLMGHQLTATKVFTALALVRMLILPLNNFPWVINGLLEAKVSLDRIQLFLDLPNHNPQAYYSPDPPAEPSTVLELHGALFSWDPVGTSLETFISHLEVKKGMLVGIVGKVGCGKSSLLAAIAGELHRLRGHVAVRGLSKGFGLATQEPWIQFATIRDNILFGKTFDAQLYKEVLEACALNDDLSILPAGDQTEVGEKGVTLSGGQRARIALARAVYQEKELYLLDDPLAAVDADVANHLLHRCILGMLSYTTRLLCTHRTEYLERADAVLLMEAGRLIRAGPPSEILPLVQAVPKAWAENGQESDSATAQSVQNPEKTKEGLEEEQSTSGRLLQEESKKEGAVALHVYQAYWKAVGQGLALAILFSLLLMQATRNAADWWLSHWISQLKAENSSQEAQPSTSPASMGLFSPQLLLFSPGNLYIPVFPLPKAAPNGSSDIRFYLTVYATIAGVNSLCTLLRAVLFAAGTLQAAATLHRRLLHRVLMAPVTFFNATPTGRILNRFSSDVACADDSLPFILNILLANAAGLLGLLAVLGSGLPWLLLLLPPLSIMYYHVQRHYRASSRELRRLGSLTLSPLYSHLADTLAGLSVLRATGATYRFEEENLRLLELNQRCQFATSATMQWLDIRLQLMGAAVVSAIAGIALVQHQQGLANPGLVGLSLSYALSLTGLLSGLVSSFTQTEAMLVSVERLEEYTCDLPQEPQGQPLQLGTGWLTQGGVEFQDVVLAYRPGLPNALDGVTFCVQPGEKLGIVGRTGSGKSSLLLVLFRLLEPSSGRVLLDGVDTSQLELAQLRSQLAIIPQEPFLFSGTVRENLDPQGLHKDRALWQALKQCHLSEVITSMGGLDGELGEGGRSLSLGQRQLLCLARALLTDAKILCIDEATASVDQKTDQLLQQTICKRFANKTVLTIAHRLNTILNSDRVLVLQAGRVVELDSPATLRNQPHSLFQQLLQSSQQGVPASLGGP

ABCB1 (P-glycoprotein, MDR1), sequence (P08183 whole entry): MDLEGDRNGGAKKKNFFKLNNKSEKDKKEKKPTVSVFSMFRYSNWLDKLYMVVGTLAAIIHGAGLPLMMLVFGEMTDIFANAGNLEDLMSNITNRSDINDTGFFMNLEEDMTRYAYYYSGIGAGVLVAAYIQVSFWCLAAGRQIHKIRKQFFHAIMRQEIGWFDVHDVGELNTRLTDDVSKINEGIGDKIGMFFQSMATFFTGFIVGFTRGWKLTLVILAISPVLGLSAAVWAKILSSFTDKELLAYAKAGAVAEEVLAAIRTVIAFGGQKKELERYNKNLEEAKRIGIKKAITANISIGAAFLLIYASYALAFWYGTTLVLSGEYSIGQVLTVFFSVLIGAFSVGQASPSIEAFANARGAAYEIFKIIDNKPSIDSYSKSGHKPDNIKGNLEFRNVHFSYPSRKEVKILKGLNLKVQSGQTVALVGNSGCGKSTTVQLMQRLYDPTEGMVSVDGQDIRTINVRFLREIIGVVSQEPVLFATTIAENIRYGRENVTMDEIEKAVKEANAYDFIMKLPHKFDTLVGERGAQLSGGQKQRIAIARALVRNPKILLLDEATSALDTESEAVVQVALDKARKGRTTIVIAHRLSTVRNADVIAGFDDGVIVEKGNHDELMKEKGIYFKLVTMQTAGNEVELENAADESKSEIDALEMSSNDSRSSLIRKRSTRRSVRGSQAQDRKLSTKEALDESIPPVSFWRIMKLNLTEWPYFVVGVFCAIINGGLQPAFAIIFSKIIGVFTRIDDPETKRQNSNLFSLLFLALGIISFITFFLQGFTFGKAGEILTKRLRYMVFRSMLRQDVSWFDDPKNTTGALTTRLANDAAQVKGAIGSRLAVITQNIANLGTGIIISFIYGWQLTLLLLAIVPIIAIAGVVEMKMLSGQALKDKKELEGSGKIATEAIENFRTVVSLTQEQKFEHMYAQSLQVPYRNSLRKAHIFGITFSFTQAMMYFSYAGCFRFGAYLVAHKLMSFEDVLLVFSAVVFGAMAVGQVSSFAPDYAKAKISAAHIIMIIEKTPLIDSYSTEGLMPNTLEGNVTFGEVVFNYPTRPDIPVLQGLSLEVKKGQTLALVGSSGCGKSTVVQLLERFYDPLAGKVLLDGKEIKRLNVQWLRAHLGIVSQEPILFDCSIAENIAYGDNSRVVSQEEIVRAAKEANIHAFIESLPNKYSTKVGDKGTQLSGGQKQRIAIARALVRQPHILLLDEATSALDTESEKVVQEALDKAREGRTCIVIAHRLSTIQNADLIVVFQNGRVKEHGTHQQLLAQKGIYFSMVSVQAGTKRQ

Row | SMILES | EC50 [1] [nM] | [3H]-paclitaxel efflux, HEK293/ABCC10 versus HEK293/pcDNA3.1 cells (ABCC10 (MRP7))
1 | C=CC(=O)N1CCC[C@@H](n2nc(-c3ccc(Oc4ccccc4)cc3)c3c(N)ncnc32)C1 [ibrutinib] | 641 | –
2 | CC(=O)O[C@H]1C(=O)[C@@]2(C)[C@H]([C@H](OC(=O)c3ccccc3)[C@]3(O)C[C@H](OC(=O)[C@H](O)[C@@H](NC(=O)c4ccccc4)c4ccccc4)C(C)=C1C3(C)C)[C@]1(OC(C)=O)CO[C@@H]1C[C@@H]2O [paclitaxel] | – | KB-C2 and HEK293/ABCC10 cells efflux more [^3H]-paclitaxel out of the cells
